Earlier results as cited in patent publication US20150342872A1 (CRITITECH, INC., priority 2014, published 2015).

Key:
[1] = system: microtubule bundling and cytotoxic effects
[2] = 3-hour infusion, 135 versus 175 mg/m2

CC(=O)O[C@H]1C(=O)[C@@]2(C)[C@H]([C@H](OC(=O)c3ccccc3)[C@]3(O)C[C@H](OC(=O)[C@H](O)[C@@H](NC(=O)c4ccccc4)c4ccccc4)C(C)=C1C3(C)C)[C@]1(OC(C)=O)CO[C@@H]1C[C@@H]2O [paclitaxel]
minimal concentration required to induce microtubule bundling and cytotoxic effects [1]: > 0.1 µmol/L | increase of AUC (0-∞) for a 30% increase in dose [2]: 89%
